Experiments:
Format in all cases: in vivo, human
[1] = tested on: post trauma pain in the pinned ankle; assay: Example 34: ankle pain after surgical insertion of metal screws; settings: for extent of pain relief: 6% in WEP 244, topical
Experimental: A subject with above described post trauma pain at the end of each day experienced painful discomfort in the pinned ankle. […] Complete relief lasted nearly 24 hours. At the end of the next day, the ankle was as painful as the days before. Subject applied 6% C20 in same liquid vehicle.

psoriatic arthritis = assay: Example 35: psoriatic arthritis, topical C20 and C26
Experimental: A subject with a 40 year history of psoriasis and several years of psoriatic arthritis topically applied the formulations cited in Example 34 above. Formulation of C20 was applied to both hands. […] The formulation of C26 was applied to the left ankle and foot, pain of which was relieved in about 5 minutes and lasted for 4-5 hours.

[2] = tested on: psoriatic arthritis, painful, swollen and erythematous right ankle; assay: Example 15: subcutaneous injection over ankle with psoriatic arthritis; settings: 0.5 ml of 2% subcutaneous
Experimental: A diabetic subject with psoriasis for over 4 decades, and worsening psoriatic arthritis for about 10 years, presented with an acutely painful, swollen and erythematous right ankle. Using a 1 ml insulin syringe with short needle they injected 0.5 ml of the 2% creatine monohydrate as described above into a subcutaneous site of the anterior ankle.

[3] = tested on: Rheumatoid Arthritis (RA); assay: Example 26: rheumatoid arthritis, intralesional injection and topical; settings: 0.15 ml of 2% aqueous solution/suspension once weekly, 4 injections; over 9 weeks
Experimental: A subject, described in an earlier Example, after approximately 4 months of worsening symptoms, and finger joint enlargements on both hands, realized that they were rapidly developing RA, especially when a rheumatoid nodule enlarged over the terminal joint of the left […] finger to a size of approximately 1 cm in diameter, and about 3 mm thick. The nodule was initially injected with 0.15 ml of a 2% aqueous solution/suspension of creatine monohydrate once weekly for 4 injections. […] Thereafter the subject wore a nitrile glove containing a few drops of C15 3-9% dissolved in WP 82 for an hour twice daily on the left hand only. After another 2 months C15 9% in WP 82 was topically applied by means of their wearing nitrile gloves containing the C15 solution for 1 hour twice daily. […] It is intended for the subject to continue topical treatment in one form or another for an indefinite time forward.

[4] = tested on: arthritic pain in the right hip joint; assay: Example 16: subcutaneous injection for hip pain
Experimental: A subject who for several weeks was experiencing disabling arthritic pain in the right hip joint, was given two subcutaneous injections of a sterile 2% aqueous solution/suspension of creatine monohydrate over the point of pain, 0.5 ml given first, and 0.6 ml given five days later. […] A third subcutaneous injection of 0.7 ml of the 2% creatine monohydrate solution/suspension was given over the point of joint pain elicited by finger pressure. […] Hip remained pain free for another 2 weeks.

dental pain = assay: Example 17: post dental surgery pain; settings: about 1 gram powder in mouth
Experimental: A subject had three teeth, #23, 24 and 25 extracted at 12 noon, then had two implants posted immediately after. At about 6 pm, subject started to feel pain in the gum area after lidocaine anesthesia wore off. […] The subject took about 1 gram creatine monohydrate powder into mouth. The powder, as it dissolved in saliva, was rinsed for approximately 5 minutes, then swallowed. The dental pain stopped in about 20 minutes, and relief lasted for 8 hours.

[5] = tested on: rheumatoid arthritis; rheumatoid nodule; assay: Example 13: rheumatoid arthritis fingers, nodule injection and glove application; settings: nodule injected with 0.15 ml of 2% aqueous solution/suspension once weekly, four injections; over 9 weeks
Experimental: A subject noted changes in their fingers that appeared to be compatible with the diagnosis of early rheumatoid arthritis in autumn of the year. At about one month later there appeared over the terminal interphalangeal joint of the left third finger a raised inflammatory nodule compatible with the diagnosis of a rheumatoid nodule. The nodule was injected with 0.15 ml of a 2% aqueous solution/suspension of creatine monohydrate once weekly for four injections. […] Thereafter, for a period of one month, the subject wore a nitrile glove containing a few drops N-acetyl ethyl creatine 3% dissolved in water: propylene glycol 8:2 for about an hour twice daily on the left hand only.

[6] = tested on: arthritis of cervical and thoracic spine; assay: Example 14: subcutaneous injection over sites of spinal pain
Experimental: A physician subject with continually worsening osteoarthritis of multiple joints for 15-16 years, prepared a sterile aqueous injectable solution/suspension of 2% creatine monohydrate. Under their direction, medical assistants were instructed on techniques to give subcutaneous injections of the 2% aqueous solution/suspension with either a 1 ml syringe with 27 gauge 13 mm needle or with a 1 ml insulin syringe with 30 gauge 8 mm needle.
Five intervertebral painful sites of arthritis of cervical and thoracic spine, identified by finger pressure, received a single injection of 0.3 ml of the solution.

pain in the left ankle = assay: Example 8: post fracture acute ankle pain; settings: before the test
Description: A subject with a history of fractured left ankle seven years earlier, who had worn a plaster cast for several weeks at that time, related that for the past three months disturbing and increasing pain in the left ankle, which was occurring daily and was disturbing their sleep every night. […] They were provided 8 ounces of the above Formulation A (Example 4), to be applied to the painful ankle as needed.

[7] = tested on: painful swollen right knee; assay: Example 9: painful swelling of knee joint, three topical formulations; settings: before the test
Experimental: A subject with relentless painful swollen right knee for 3-4 years, not relieved by oral ibuprofen, was tested and rated analgesic efficacy of the three following formulations applied topically to the knee. [table] [table] [table]

CCOC(=O)CN(C)C(N)=NC(=O)c1ccccc1 [Compound C20, N-benzoyl ethyl creatinate]
extent of pain relief [1]: Some relief did occur but not complete as with C26 | extent of pain relief (psoriatic arthritis; 6% in WEP 244 applied to both hands): completely relieved | duration of relief (psoriatic arthritis; both hands): 4 h | time to pain relief (psoriatic arthritis; both hands): about 2 minutes

CCOC(=O)CN(C)C(N)=NC(=O)c1ccccc1OC(C)=O [Compound C26, N-2-acetoxybenzoyl ethyl creatinate]
duration of complete relief ([1]; 6% in WEP 244): ~24 h | time to pain relief ([1]; 6% in WEP 244): ≤ 1 min | extent of pain relief [1]: completely relieved the pain | extent of pain relief (psoriatic arthritis; 6% in WEP 244 applied to left ankle and foot): relieved | duration of relief (psoriatic arthritis; left ankle and foot): 4 to 5 h | time to pain relief (psoriatic arthritis; left ankle and foot): about 5 minutes

CN(CC(=O)O)C(=N)N.O [creatine monohydrate]
edema and erythema of the ankle [2]: completely resolved within a week | state of ankle four weeks after the injection [2]: remained pain free, was of normal appearance, and was completely functional as a normal ankle | time to resolution of ankle pain [2]: about 30 minutes | extent of pain relief ([2]; anterior ankle, person): Ankle pain completely resolved | resolution of rheumatoid nodule [3]: the nodule resolved almost completely | duration of complete relief of pain ([4]; after the first two injections): 2 weeks | duration pain free ([4]; after third injection): 2 weeks | time to complete relief of pain ([4]; third injection, 0.7 ml): 3 to 4 h | extent of pain relief ([4]; third subcutaneous injection, 0.7 ml of 2%): Complete relieve of pain | extent of pain relief ([4]; two subcutaneous injections of 2% solution/suspension, 0.5 ml and 0.6 ml five days later, person): Complete relief of pain | duration of relief (dental pain): 8 h | time until dental pain stopped (dental pain; rinsed approximately 5 minutes, swallowed, person): about 20 minutes | resolution of rheumatoid nodule [5]: the nodule resolved almost completely | extent of pain relief ([6]; single subcutaneous injection of 0.3 ml of 2% aqueous solution/suspension at five intervertebral sites): All sites/areas became pain free | time to pain free after injection ([6]; subcutaneous 0.3 ml of 2% per site): 2 to 3 h | duration pain free ([6]; subcutaneous 0.3 ml of 2% per site, no further therapy): 7 weeks

CC(C)Cc1ccc(C(C)C(=O)O)cc1 (stereo not shown) [ibuprofen]
pain relief by oral comparator (pain in the left ankle): did relieve the pain for several hours, but the pain always recurred | pain relief by oral comparator [7]: not relieved
